Our source for the AUC0-2, AUC0-24 and Cmax values is patent US9801843B2, “Self-emulsifying composition of ω3 fatty acid” (priority 2013, dated 2017).

A short description of the data set: Pharmacokinetics in beagles (Test Example 5). The data set is classed as in vivo. Conditions: plasma EPA, male beagles fasted, oral, 600 mg EPA-E, baseline-corrected. On the procedure: The composition of Example 14 was orally administered to 6 male beagles (at the age of 2 to 6 years with the body weight of 13 kg, 3 Marshall beagles and 3 Nosan beagles) under fasting conditions, and blood EPA concentration was evaluated. The test animals had been fasted since 18 hours or more before the administration, and each animal was administered with the composition in an amount corresponding to 600 mg of the EPA-E. Blood was collected before the administration, and 0.5, 1, 1.5, 2, 3, 4, 6, 8, and 24 hours after the administration, and plasma was separated to measure plasma EPA concentration by LC/MS/MS (method in which a sample is isolated by liquid chromatography, then subjected to mass spectrometry to conduct separation and measurement thereon). The control group was administered with the EPA-E stock solution encapsulated in a capsule. […] In the calculation of each parameter, correction was made by subtracting the blood EPA concentration before the administration from the measured blood concentration.

As a reminder, the Cmax is the maximum level reached in the sampled fluid or tissue.

`CC/C=C\C/C=C\C/C=C\C/C=C\C/C=C\CCCC(=O)OCC` [EPA-E Stock solution, Ethyl eicosapentaenoate ester] displayed an AUC0-2 of 14.4 µg·h/mL, an AUC0-24 of 188 µg·h/mL and a Cmax of 16600 ng/mL.
